Laboratory results taken from ChEMBL document CHEMBL5260852, “Long-Acting Tumor-Activated Prodrug of a TGFβR Inhibitor” (J Med Chem, 2021).
Values belong to the compound of their own block, whether it stands above or below them. Numbered stars: 1 amine (or outer) side, 2 acyl side, 3 side chain; on linkers, the order of the positions; unused ones are H or OH. Square brackets hold non-standard residues; d marks the D form. Peptide text beside a SMILES is read from it. * marks the point of attachment. X1 = N#Cc1cnc2ccc(-c3c(-c4ccc(F)c(Cl)c4)ncn3CCOCN*)nn12; C18 diacid = O=C(O)CCCCCCCCCCCCCCCCC(=O)*; γGlu = O=C(O)[C@H](CCC(=O)[*:2])N[*:1]; PABC = O=C(OCc1ccc(N[*:1])cc1)[*:2]; Palmitoyl = CCCCCCCCCCCCCCCC(=O)*; AEEA = NCCOCCOCC(=O)O

Assays:
[1] = Ratio of AUC in heart to blood in C57BL/6 mouse xenografted mouse MC38 cells at 1.88 mg/kg,iv and measured after 72 hrs by LC-MS/MS analysis; type: ADME, organism-based; details: read-out: Ratio AUC
[2] = Ratio of AUC in tumor to blood in C57BL/6 mouse xenografted mouse MC38 cells at 1.88 mg/kg,iv and measured after 72 hrs by LC-MS/MS analysis; type: ADME, organism-based; details: read-out: Ratio AUC
[3] = Cmax in C57BL/6 mouse xenografted with mouse MC38 cells at 3.75 mg/kg,iv and measured after 4 weeks by LC-MS/MS analysis; type: ADME, organism-based, MC-38; parameters: dose 3.75 mg/kg, time 4 weeks, route iv; details: in vivo
[4] = Tmax in C57BL/6 mouse blood xenografted mouse MC38 cells at 1.88 mg/kg,iv and measured after 72 hrs by LC-MS/MS analysis; type: ADME, organism-based, MC-38
[5] = Ratio of AUC in tumor to heart in C57BL/6 mouse xenografted mouse MC38 cells at 1.88 mg/kg,iv and measured after 72 hrs by LC-MS/MS analysis; type: ADME, organism-based; details: in vivo
[6] = AUC (0 to 24 hrs) in rat at 3 mg/kg,iv for 3 months; type: ADME, organism-based; parameters: time 3 months, dose 3 mg/kg, route iv; details: in vivo
[7] = Tmax in C57BL/6 mouse heart xenografted mouse MC38 cells at 1.88 mg/kg,iv and measured after 72 hrs by LC-MS/MS analysis; type: ADME, organism-based, MC-38
[8] = AUC (0 to 72 hrs) in C57BL/6 mouse xenografted with mouse MC38 cells at 3.75 mg/kg,iv and measured after 4 weeks by LC-MS/MS analysis; type: ADME, organism-based, MC-38; parameters: dose 3.75 mg/kg, time 4 weeks, route iv; details: in vivo
[9] = Cmax in C57BL/6 mouse blood xenografted mouse MC38 cells at 1.88 mg/kg,iv and measured after 72 hrs by LC-MS/MS analysis; type: ADME, organism-based, MC-38; parameters: time 72 hrs, dose 1.88 mg/kg, route iv
[10] = Cmax in C57BL/6 mouse tumor xenografted mouse MC38 cells at 1.88 mg/kg,iv and measured after 72 hrs by LC-MS/MS analysis; type: ADME, organism-based, Neoplasm, MC-38; parameters: dose 1.88 mg/kg, time 72 hrs, route iv
[11] = Tmax in C57BL/6 mouse tumor xenografted mouse MC38 cells at 1.88 mg/kg,iv and measured after 72 hrs by LC-MS/MS analysis; type: ADME, organism-based, Neoplasm, MC-38
[12] = AUC (0 to 72 hrs) in C57BL/6 mouse tumor xenografted mouse MC38 cells at 1.88 mg/kg,iv and measured after 72 hrs by LC-MS/MS analysis; type: ADME, organism-based, Neoplasm, MC-38; parameters: dose 1.88 mg/kg, time 72 hrs, route iv
[13] = Cmax in C57BL/6 mouse heart xenografted mouse MC38 cells at 1.88 mg/kg,iv and measured after 72 hrs by LC-MS/MS analysis; type: ADME, organism-based, MC-38; parameters: time 72 hrs, dose 1.88 mg/kg, route iv
[14] = AUC (0 to 72 hrs) in C57BL/6 mouse blood xenografted mouse MC38 cells at 1.88 mg/kg,iv and measured after 72 hrs by LC-MS/MS analysis; type: ADME, organism-based, MC-38; parameters: dose 1.88 mg/kg, time 72 hrs, route iv
[15] = AUC (0 to 72 hrs) in C57BL/6 mouse heart xenografted mouse MC38 cells at 1.88 mg/kg,iv and measured after 72 hrs by LC-MS/MS analysis; type: ADME, organism-based, MC-38; parameters: time 72 hrs, dose 1.88 mg/kg, route iv
[16] = Stability in rat plasma assessed as parent compound remaining after 24 hrs by HPLC-MS analysis; type: ADME, cell-free; details: read-out: Stability
[17] = Stability in mouse plasma assessed as parent compound remaining after 24 hrs by HPLC-MS analysis; type: ADME, cell-free; details: read-out: Stability
[18] = Drug concentration in C57BL/6 mouse plasma at 6 mg/kg,iv and measured after 24 hrs by LC-MS/MS analysis; type: ADME, organism-based
[19] = Prodrug conversion in blood of C57BL/6 mouse xenografted mouse MC38 cells assessed as BMS-986260 AUC (0 to 72 hrs) at 8 mg/kg,iv and measured after 72 hrs by LC-MS/MS analysis; type: ADME, organism-based, MC-38; parameters: time 72 hrs, dose 8 mg/kg, route iv; details: in vivo
[20] = Prodrug conversion in heart of C57BL/6 mouse xenografted mouse MC38 cells assessed as BMS-986260 Cmax at 8 mg/kg,iv and measured after 72 hrs by LC-MS/MS analysis; type: ADME, organism-based, MC-38; parameters: dose 8 mg/kg, time 72 hrs, route iv; details: in vivo
[21] = Prodrug conversion in blood of C57BL/6 mouse xenografted mouse MC38 cells assessed as BMS-986260 ratio of AUC in tumor to blood at 8 mg/kg,iv and measured after 72 hrs by LC-MS/MS analysis; type: ADME, organism-based, MC-38; details: tumour
[22] = Prodrug conversion in tumor of C57BL/6 mouse xenografted mouse MC38 cells assessed as BMS-986260 AUC (0 to 72 hrs) at 8 mg/kg,iv and measured after 72 hrs by LC-MS/MS analysis; type: ADME, organism-based, Neoplasm, MC-38; parameters: time 72 hrs, dose 8 mg/kg, route iv; details: in vivo
[23] = AUC in C57BL/6 mouse plasma at 6 mg/kg,iv and measured upto 24 hrs by LC-MS/MS analysis; type: ADME, organism-based; parameters: dose 6 mg/kg, time < 24 hrs, route iv
[24] = Prodrug conversion in C57BL/6 mouse xenografted mouse MC38 cells assessed as BMS-986260 ratio of AUC in heart to blood at 8 mg/kg,iv and measured after 72 hrs by LC-MS/MS analysis; type: ADME, organism-based, MC-38; details: other tissue
[25] = Prodrug conversion in tumor of C57BL/6 mouse xenografted mouse MC38 cells assessed as BMS-986260 Cmax at 8 mg/kg,iv and measured after 72 hrs by LC-MS/MS analysis; type: ADME, organism-based, Neoplasm, MC-38; parameters: dose 8 mg/kg, time 72 hrs, route iv; details: in vivo
[26] = Prodrug conversion in blood of C57BL/6 mouse xenografted mouse MC38 cells assessed as BMS-986260 Tmax at 8 mg/kg,iv and measured after 72 hrs by LC-MS/MS analysis; type: ADME, organism-based, MC-38; details: in vivo
[27] = Prodrug conversion in blood of C57BL/6 mouse xenografted mouse MC38 cells assessed as BMS-986260 Cmax at 8 mg/kg,iv and measured after 72 hrs by LC-MS/MS analysis; type: ADME, organism-based, MC-38; parameters: dose 8 mg/kg, time 72 hrs, route iv; details: in vivo
[28] = Prodrug conversion in heart of C57BL/6 mouse xenografted mouse MC38 cells assessed as BMS-986260 AUC (0 to 72 hrs) at 8 mg/kg,iv and measured after 72 hrs by LC-MS/MS analysis; type: ADME, organism-based, MC-38; parameters: time 72 hrs, dose 8 mg/kg, route iv; details: in vivo
[29] = Prodrug conversion in heart of C57BL/6 mouse xenografted mouse MC38 cells assessed as BMS-986260 Tmax at 8 mg/kg,iv and measured after 72 hrs by LC-MS/MS analysis; type: ADME, organism-based, MC-38; details: in vivo
[30] = Prodrug conversion in blood of C57BL/6 mouse xenografted mouse MC38 cells assessed as BMS-986260 ratio of AUC in tumor to heart at 8 mg/kg,iv and measured after 72 hrs by LC-MS/MS analysis; type: ADME, organism-based, MC-38; details: in vivo
[31] = Prodrug conversion in tumor of C57BL/6 mouse xenografted mouse MC38 cells assessed as BMS-986260 Tmax at 8 mg/kg,iv and measured after 72 hrs by LC-MS/MS analysis; type: ADME, organism-based, Neoplasm, MC-38; details: in vivo

Kp at 72 h [1]: 1.7
Kp at 72 h [2]: 1.1
Cmax [3]: 1500 nM
Tmax [4]: 1 h
Ratio AUC [5]: 0.61
AUC(0-t) at 2190 h [6]: 27 µM·h
Tmax [7]: 1 h
AUC(0-t) at 672 h [8]: 39 µM·h
Cmax [9]: 1400 nM
Cmax [10]: 1500 nM
Tmax [11]: 1 h
AUC(0-t) at 72 h [12]: 6.1 µM·h
Cmax [13]: 2500 nM
AUC(0-t) at 72 h [14]: 5.8 µM·h
AUC(0-t) at 72 h [15]: 10 µM·h
Compound: N#Cc1cnc2ccc(-c3c(-c4ccc(F)c(Cl)c4)ncn3CCO)nn12

remaining at 24 h [16]: 81%
remaining at 24 h [17]: 79%
concentration at 24 h [18]: > 1000 nM
Compound: CC(C)C[C@H](NC(=O)COCCOCCNC(=O)CC[C@H](NC(=O)CCCCCCCCCCCCCCCCC(=O)O)C(=O)O)C(=O)N[C@@H](CO)C(=O)NCC(=O)N[C@@H](CCCCN)C(=O)Nc1ccc(COC(=O)NCOCCn2cnc(-c3ccc(F)c(Cl)c3)c2-c2ccc3ncc(C#N)n3n2)cc1 ({C18 diacid-γGlu-AEEA}-LSGK[PABC]-X1)

remaining at 24 h [16]: 93%
AUC [19]: 4.6 µM·h
Cmax [20]: 270 nM
Ratio AUC [21]: 2.8
AUC [22]: 13 µM·h
AUC at 24 h [23]: 270 µM·h
Ratio AUC [24]: 1.8
Cmax [25]: 310 nM
Tmax [26]: 1 h
remaining at 24 h [17]: 96%
concentration at 24 h [18]: 5200 nM
Cmax [27]: 140 nM
AUC [28]: 8.4 µM·h
Tmax [29]: 8 h
Ratio AUC [30]: 1.6
Tmax [31]: 8 h
Compound: CC(C)C[C@H](NC(=O)COCCOCCNC(=O)COCCOCCNC(=O)CC[C@H](NC(=O)CC[C@H](NC(=O)CC[C@H](NC(=O)CCCCCCCCCCCCCCCCC(=O)O)C(=O)O)C(=O)O)C(=O)O)C(=O)N[C@@H](CO)C(=O)NCC(=O)N[C@@H](CCCCN)C(=O)Nc1ccc(COC(=O)NCOCCn2cnc(-c3ccc(F)c(Cl)c3)c2-c2ccc3ncc(C#N)n3n2)cc1 ({C18 diacid-γGlu-γGlu-γGlu-AEEA-AEEA}-LSGK[PABC]-X1)

AUC at 24 h [23]: 40.9 µM·h
Compound: CCCCCCCCCCCCCCCC(=O)N[C@@H](CCC(=O)N[C@@H](CC(C)C)C(=O)N[C@@H](CO)C(=O)NCC(=O)N[C@@H](CCCCN)C(=O)Nc1ccc(COC(=O)NCOCCn2cnc(-c3ccc(F)c(Cl)c3)c2-c2ccc3ncc(C#N)n3n2)cc1)C(=O)O ({Palmitoyl-γGlu}-LSGK[PABC]-X1)

remaining at 24 h [16]: 76%
AUC at 24 h [23]: 270 µM·h
remaining at 24 h [17]: 91%
concentration at 24 h [18]: 5200 nM
Compound: CC(C)C[C@H](NC(=O)COCCOCCNC(=O)COCCOCCNC(=O)COCCOCCNC(=O)CC[C@H](NC(=O)CCCCCCCCCCCCCCCCC(=O)O)C(=O)O)C(=O)N[C@@H](CO)C(=O)NCC(=O)N[C@@H](CCCCN)C(=O)Nc1ccc(COC(=O)NCOCCn2cnc(-c3ccc(F)c(Cl)c3)c2-c2ccc3ncc(C#N)n3n2)cc1 ({C18 diacid-γGlu-AEEA-AEEA-AEEA}-LSGK[PABC]-X1)
